Measurements published in publication PMC2817922, “Inhibitory Activity of Marine Sponge-Derived Natural Products against Parasitic Protozoa” (Marine Drugs, 2010).
Values after ≈ are worked out from the molar mass of the structure shown. Read-outs that look alike come from different tables or passages of the source.

How the values were obtained:
[1] = tested on: T. cruzi Tulahuen strain C2C4; assay: Activity against Trypanosoma cruzi (intracellular amastigotes in L6 cells, beta-galactosidase/CPRG); type: cell-based; details: for IC50: Trypanosoma cruzi, TULAHUEN, Myoblast, in Rattus norvegicus, 96 h, intracellular amastigotes in L6 rat skeletal myoblasts, Tulahuen C2C4, 96 h
Experimental: Rat skeletal myoblasts (L6 cells) were seeded in 96-well microtitre plates at 2000 cells/well in 100 μL RPMI 1640 medium with 10% FBS and 2 mM L-glutamine. After 24 h the medium was removed and replaced by 100 μL per well containing 5000 trypomastigote forms of T. cruzi Tulahuen strain C2C4 containing the β-galactosidase (Lac Z) gene. After 48 h, the medium was removed from the wells and replaced by 100 μL fresh medium with or without a serial drug dilution of seven 3-fold dilution steps covering a range from 90 to 0.123 μg/mL. After 96 h of incubation, the plates were inspected under an inverted microscope to assure growth of the controls and sterility. Then, the substrate CPRG/Nonidet (50 μL) was added to all wells. A color reaction developed within 2–6 h and could be read photometrically at 540 nm. Data were transferred into the graphic programme Softmax Pro (Molecular Devices), which calculated IC50 values. Benznidazole was the reference drug used.

P. falciparum K1 strain = assay: Activity against Plasmodium falciparum ([3H]-hypoxanthine incorporation); type: cell-based; details: for IC50: Plasmodium falciparum
Experimental: In vitro activity against erythrocytic stages of P. falciparum was determined by a modified [^3H]-hypoxanthine incorporation assay, using the chloroquine- and pyrimethamine-resistant K1 strain and the standard drug […]. Briefly, parasite cultures incubated in RPMI 1640 medium with 5% Albumax (without hypoxanthine) were exposed to serial drug dilutions in microtiter plates. After 48 h of incubation at 37°C in a reduced oxygen atmosphere, 0.5 μCi ^3H-hypoxanthine was added to each well. Cultures were incubated for a further 24 h before they were harvested onto glass-fiber filters and washed with distilled water. The radioactivity was counted using a Betaplate™ liquid scintillation counter (Wallac, Zurich). […] IC50 values were calculated from the sigmoidal inhibition curves using Microsoft Excel. Chloroquine was the reference drug used.

[2] = tested on: Trypanosoma brucei rhodesiense, STIB 900 strain; assay: Activity against Trypanosoma brucei rhodesiense (Alamar Blue); type: cell-based; details: read-out: IC50 Trypanosoma b. rhodesiense
Experimental: Trypanosoma brucei rhodesiense, STIB 900 strain, and the standard drug, melarsoprol, were used for the assay. This stock was isolated in 1982 from a human patient in Tanzania and after several mouse passages cloned and adapted to axenic culture conditions. Minimum Essential Medium (50 μL) supplemented with 25 mM HEPES, 1g/L additional glucose, 1% MEM non-essential amino acids (100x), 0.2 mM 2-mercaptoethanol, 1 mM Na-pyruvate and 15% heat inactivated horse serum was added to each well of a 96-well microtiter plate. Serial drug dilutions of seven 3-fold dilution steps covering a range from 90 to 0.123 μg/mL were prepared. Then 10^4 bloodstream forms of T. b. rhodesiense STIB 900 in 50 μL was added to each well and the plate incubated at 37 °C under a 5% CO2 atmosphere for 72 h. 10 μL Alamar Blue (resazurin, 12.5 mg in 100 mL double-distilled water) was then added to each well and incubation continued for a further 2–4 h. Then, the plates were read with a Spectramax Gemini XS microplate fluorometer (Molecular Devices Cooperation, Sunnyvale, CA, USA) using an excitation wavelength of 536 nm and an emission wavelength of 588 nm. Data were analyzed using the microplate reader software Softmax Pro (Molecular Devices Cooperation, Sunnyvale, CA, USA).

[3] = tested on: L. donovani strain MHOM/ET/67/L82; assay: Activity against Leishmania donovani axenic amastigotes (Alamar Blue); type: cell-based; details: for IC50: Leishmania donovani, axenic amastigotes, MHOM/ET/67/L82, 72 h
Experimental: Amastigotes of L. donovani strain MHOM/ET/67/L82 were grown in axenic culture at 37 °C in SM medium at pH 5.4 supplemented with 10% heat-inactivated fetal bovine serum under an atmosphere of 5% CO2 in air. One hundred microlitres of culture medium with 10^5 amastigotes from axenic culture with or without a serial drug dilution were seeded in 96-well microtitre plates. Serial drug dilutions covering a range from 90 to 0.123 μg/mL were prepared. After 72 h of incubation the plates were inspected under an inverted microscope to assure growth of the controls and sterile conditions. 10 μL of Alamar Blue (12.5 mg resazurin dissolved in 100 mL distilled water) were then added to each well and the plates incubated for another 2 h. Then, the plates were read with a Spectramax Gemini XS microplate fluorometer using an excitation wavelength of 536 nm and an emission wavelength of 588 nm. Data were analyzed using the software Softmax Pro (Molecular Devices Cooperation, Sunnyvale, CA, USA). Decrease of fluorescence (=inhibition) was expressed as percentage of the fluorescence of control cultures and plotted against the drug concentrations. From the sigmoidal inhibition curves the IC50 values were calculated. Miltefosine was used as reference drug.

[4] = Cytotoxicity against L6 cells (Alamar Blue); type: cell-based, rat
Experimental: Assays were performed in 96-well microtiter plates, each well containing 100 μL of RPMI 1640 medium supplemented with 1% L-glutamine (200 mM) and 10% fetal bovine serum, and 4 × 10^4 L6 cells (a […] cell line derived from rat skeletal myoblasts). Serial drug dilutions of seven 3-fold dilution steps covering a range from 90 to 0.123 μg/mL were prepared. After 72 h of incubation, the plates were inspected under an inverted microscope to assure growth of the controls and sterile conditions. Ten μL of Alamar Blue solution was then added to each well and the plates incubated for another 2 h. Then the plates were read with a Spectramax Gemini XS microplate fluorometer using an excitation wavelength of 536 nm and an emission wavelength of 588 nm. Data were analysed using the microplate reader software Softmax Pro. Podophyllotoxin was the reference drug used.

[5] = K1, erythrocytic stages, K1 strain resistant to chloroquine and pyrimethamine, read-out: IC50 Plasmodium falciparum
[6] = bloodstream forms, STIB 900, 72 h, average of at least two independent assays in duplicates

SMILES	IC50 [1]	IC50 (P. falciparum K1 strain; [5])	IC50 [2, 6]	IC50 [3]	IC50 at 72 h ([4]; rat)	selectivity index (IC50 against L6 cells/IC50 against parasite) (P. falciparum K1 strain; towards the malaria parasite (P. falciparum))	selectivity index (IC50 against L6 cells/IC50 against parasite) ([3]; for L. donovani)	fold less active against T. cruzi than against T. b. rhodesiense ([1]; ratio of IC50 values)	IC50 (P. falciparum K1 strain; K1, read-out: IC50 Plasmodium falciparum)	IC50 ([2]; 72 h)	IC50 at 72 h ([4]; L6 cells (rat skeletal myoblasts), 72 h, read-out: IC50 Cytotoxicity)
CC(C)=CCC/C(C)=C/CC/C(C)=C/CC/C(C)=C/CCc1ccoc1 [Compound 1, furospinulosin-1]	> 90 µg/mL	11.2 µg/mL (≈ 31.5 µM)	27.4 µg/mL (≈ 77.4 µM)	14.2 µg/mL (≈ 40 µM)	> 90 µg/mL						
CC(C)=CCC/C(C)=C/CC/C(C)=C/CC/C(C)=C/CC/C(C)=C/CCc1ccoc1 [Compound 2, furospinulosin-2]	> 90 µg/mL	3.51 µg/mL (≈ 8.3 µM)	16.2 µg/mL (≈ 38.2 µM)	> 90 µg/mL	34 µg/mL (≈ 80.4 µM)						
C/C(=C\CCc1ccoc1)C[C@@H](O)C[C@@H](C)CCCc1ccoc1 [Compound 3, furospongin-1]	17.5 µg/mL (≈ 52.9 µM)	14 µg/mL (≈ 42.4 µM)	13.9 µg/mL (≈ 42.2 µM)	4.8 µg/mL (≈ 14.5 µM)	27.4 µg/mL (≈ 83.1 µM)						
COC(=O)/C(C)=C/CC/C(=C/CC/C(C)=C/CC/C(C)=C/CCc1ccoc1)C(=O)O [Compound 4, furospongin-4]	> 90 µg/mL	7.51 µg/mL (≈ 17.5 µM)	17.9 µg/mL (≈ 41.9 µM)	> 90 µg/mL	> 90 µg/mL						
CC(C)=CCC/C(C)=C/CC/C(C)=C/CC/C(C)=C/CC/C(C)=C/CC/C(C)=C/CCC1(C)C=Cc2cc(O)ccc2O1 (centres unmarked) [Compound 6, 2-(hexaprenylmethyl)-2-methylchromenol]	> 90 µg/mL	> 20 µg/mL	41.4 µg/mL (≈ 70.8 µM)	15.9 µg/mL (≈ 27.2 µM)	> 90 µg/mL						
CC(C)=CCC/C(C)=C/CC/C(C)=C/CC/C(C)=C/CC/C(C)=C/CC/C(C)=C/CC/C(C)=C/CC/C(C)=C/Cc1cc(C(=O)O)ccc1O [Compound 7, 4-hydroxy-3-octaprenylbenzoic acid]	> 90 µg/mL	~1 µg/mL (≈ 1.46 µM)	13.1 µg/mL (≈ 19.2 µM)	5.6 µg/mL (≈ 8.2 µM)	86.5 µg/mL (≈ 127 µM)						
CC(C)=CCC/C(C)=C/CC/C(C)=C/CC/C(C)=C/Cc1cc(CC(=O)O)ccc1O [Compound 8, 4-hydroxy-3-tetraprenylphenylacetic acid]	> 90 µg/mL	3.3 µg/mL (≈ 7.77 µM)	0.6 µg/mL (≈ 1.41 µM)	> 90 µg/mL	> 90 µg/mL						
CC(C)=CCC/C(C)=C/CC/C(C)=C/CC/C=C(\C)CC/C=C(\C)CCC=C(C)C [Compound 10, squalene]	> 90 µg/mL	~1 µg/mL (≈ 2.43 µM)	15 µg/mL (≈ 36.6 µM)	> 90 µg/mL	34.9 µg/mL (≈ 84.9 µM)						
CC(=O)O[C@H]1C=C2C(=O)OCC2[C@@]2(C)C1[C@@]1(C)CCCC(C)(C)C1C[C@@H]2OC(C)=O (some centres unmarked) [Compound 11, dorisenone D]	> 90 µg/mL	0.43 µg/mL (≈ 1.03 µM)	2.47 µg/mL (≈ 5.9 µM)	> 90 µg/mL	3.93 µg/mL (≈ 9.39 µM)	> 9					
CC(=O)O[C@H]1C=C2C(=O)OCC2[C@]2(C)CCC3C(C)(C)CCC[C@]3(C)C12 (stereo partly drawn) [Compound 12, 11β-acetoxyspongi-12-en-16-one]	~4 µg/mL (≈ 11.1 µM)	~1 µg/mL (≈ 2.77 µM)	4.14 µg/mL (≈ 11.5 µM)	0.75 µg/mL (≈ 2.08 µM)	3.32 µg/mL (≈ 9.21 µM)		4.4				
CC(=O)O[C@H]1CC2[C@@]3(C)CCCC(C)(C)C3CC[C@@]2(C)C2CC=C3CO[C@@H](O)C3[C@]21C (stereo partly drawn) [Compound 13, 12-epi-deoxoscalarin]	40.4 µg/mL (≈ 93.9 µM)	7.48 µg/mL (≈ 17.4 µM)	55.2 µg/mL (≈ 128 µM)	> 90 µg/mL	60.3 µg/mL (≈ 140 µM)						
OCCc1c[nH]c2ccccc12 [Compound 14, tryptophol]	49.4 µg/mL (≈ 306 µM)	5.08 µg/mL (≈ 31.5 µM)	5.89 µg/mL (≈ 36.5 µM)	9.6 µg/mL (≈ 59.6 µM)	63.5 µg/mL (≈ 394 µM)			8 fold			
O=C(Cn1ccnc1[N+](=O)[O-])NCc1ccccc1 [benznidazole, reference compound]	0.359 µg/mL (≈ 1.38 µM)										
CCN(CC)CCCC(C)Nc1ccnc2cc(Cl)ccc12 (centres unmarked) [chloroquine, reference compound]									0.056 µg/mL (≈ 0.175 µM)		
Nc1nc(N)nc(Nc2ccc([As]3SCC(CO)S3)cc2)n1 (centres unmarked) [melarsoprol, reference compound]										0.003 µg/mL	
CCCCCCCCCCCCCCCCOP(=O)([O-])OCC[N+](C)(C)C [miltefosine, reference compound]				0.2 µg/mL (≈ 0.491 µM)							
COc1cc([C@@H]2c3cc4c(cc3[C@H](O)[C@H]3COC(=O)[C@H]23)OCO4)cc(OC)c1OC [podophyllotoxin, reference compound]											0.004 µg/mL (≈ 0.00965 µM)
